Measured values: US12252524B2, “GIP/GLP1 co-agonist compounds” (Eli Lilly and Company, priority 2018, dated 2025)
Numbered stars: 1 amine (or outer) side, 2 acyl side, 3 side chain; on linkers, the order of the positions; unused ones are H or OH. Square brackets hold non-standard residues; d marks the D form. Side chains are listed from the residue outwards. Peptide text beside a SMILES is read from it. * marks the point of attachment. C20 diacid = O=C(O)CCCCCCCCCCCCCCCCCCC(=O)*; C18 diacid = O=C(O)CCCCCCCCCCCCCCCCC(=O)*; αMePhe(2-F) = C[C@](N)(Cc1ccccc1F)C(=O)O; γGlu = O=C(O)[C@H](CCC(=O)[*:2])N[*:1]; αMeL = CC(C)C[C@](C)(N)C(=O)O; αMeP = C[C@@]1(C(=O)O)CCCN1; AEEA = NCCOCCOCC(=O)O; Aib = CC(C)(N)C(=O)O

Assays:
[1] = target: T1, gastric inhibitory peptide receptor (GIPR) (Homo sapiens, UniProt P48546); assay: cAMP pharmacological functional assay in presence of casein, hGIPR; type: cell-based; details: HEK293 cells expressing hGIPR, 0.1% Casein, geometric mean; read-out: hGIPR cAMP Rel EC50 nM (SEM, n)
T1 sequence (P48546 22-466): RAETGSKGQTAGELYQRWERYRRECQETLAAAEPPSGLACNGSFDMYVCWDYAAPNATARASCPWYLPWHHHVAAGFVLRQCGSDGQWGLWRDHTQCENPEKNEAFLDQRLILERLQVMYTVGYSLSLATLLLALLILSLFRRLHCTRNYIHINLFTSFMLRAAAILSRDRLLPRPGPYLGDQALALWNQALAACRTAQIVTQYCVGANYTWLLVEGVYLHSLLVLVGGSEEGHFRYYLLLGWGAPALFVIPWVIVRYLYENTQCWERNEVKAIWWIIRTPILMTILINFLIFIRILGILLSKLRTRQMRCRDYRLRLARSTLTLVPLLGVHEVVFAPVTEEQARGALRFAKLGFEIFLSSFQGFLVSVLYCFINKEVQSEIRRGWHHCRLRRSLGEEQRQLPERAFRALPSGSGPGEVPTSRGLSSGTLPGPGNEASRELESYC

[2] = target: human GLP-1 receptor (GLP-1R) (Homo sapiens, UniProt P43220); assay: cAMP pharmacological functional assay in presence of casein, hGLP-1R; type: cell-based; details: HEK293 cells expressing hGLP-1R, 0.1% Casein, geometric mean; read-out: hGLP1R cAMP Rel EC50 nM (SEM, n)
Chain of human GLP-1 receptor (GLP-1R) (P43220 24-463): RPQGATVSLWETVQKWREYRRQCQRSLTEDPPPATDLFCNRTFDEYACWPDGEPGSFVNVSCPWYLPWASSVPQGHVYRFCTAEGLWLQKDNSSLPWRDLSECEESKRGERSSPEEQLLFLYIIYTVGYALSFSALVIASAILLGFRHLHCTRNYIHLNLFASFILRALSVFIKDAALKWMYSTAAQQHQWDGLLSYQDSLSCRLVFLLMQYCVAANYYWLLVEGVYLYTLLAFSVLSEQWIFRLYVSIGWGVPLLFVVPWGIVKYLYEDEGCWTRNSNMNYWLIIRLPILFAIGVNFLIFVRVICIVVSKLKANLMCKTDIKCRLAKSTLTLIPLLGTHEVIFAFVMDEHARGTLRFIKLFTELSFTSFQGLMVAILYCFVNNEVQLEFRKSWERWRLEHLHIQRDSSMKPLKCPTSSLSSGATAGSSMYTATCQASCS

SMILES	EC50 [1] [nM]	EC50 [2] [nM]
CC[C@H](C)[C@H](NC(=O)[C@H](CC(C)C)NC(=O)[C@H](Cc1ccc(O)cc1)NC(=O)[C@H](CCC(=O)O)NC(=O)[C@@H](NC(=O)[C@H](Cc1ccccc1)NC(=O)[C@H](C)NC(=O)[C@@H]1CCCN1C(=O)[C@H](CCC(N)=O)NC(=O)[C@H](C)NC(=O)[C@H](CCCCNC(=O)COCCOCCNC(=O)COCCOCCNC(=O)CC[C@H](NC(=O)CCCCCCCCCCCCCCCCC(=O)O)C(=O)O)NC(=O)[C@H](CCCCN)NC(=O)[C@H](CC(=O)O)NC(=O)[C@H](CC(C)C)NC(=O)[C@H](CC(C)C)NC(=O)[C@@H](NC(=O)[C@H](CO)NC(=O)[C@H](Cc1ccc(O)cc1)NC(=O)[C@H](CC(=O)O)NC(=O)[C@H](CO)NC(=O)[C@@H](NC(=O)[C@H](Cc1ccccc1)NC(=O)[C@@H](NC(=O)CNC(=O)[C@H](CCC(=O)O)NC(=O)C(C)(C)NC(=O)[C@@H](N)Cc1ccc(O)cc1)[C@@H](C)O)[C@@H](C)O)[C@@H](C)CC)[C@@H](C)CC)C(=O)N[C@@H](CCC(=O)O)C(=O)NCC(=O)NCC(=O)N1CCC[C@H]1C(=O)N[C@@H](CO)C(=O)N[C@@H](CO)C(=O)NCC(N)=O [Example 274] (H-Y[Aib]EGTFTSDYSILLDKK([AEEA-AEEA-γGlu-C18 diacid])AQPAFIEYLIEGGPSSG-NH2)	> 30	14.5
CC[C@H](C)[C@H](NC(=O)[C@H](CC(C)C)NC(=O)[C@H](Cc1ccc(O)cc1)NC(=O)[C@@H](CCC(=O)O)NC(=O)[C@@H](NC(=O)[C@H](Cc1ccccc1)NC(=O)[C@@H](NC(=O)C(C)(C)NC(=O)[C@H](CCC(N)=O)NC(=O)[C@H](C)NC(=O)[C@H](CCCCNC(=O)COCCOCCNC(=O)COCCOCCNC(=O)[C@@H](N)CCCCNC(=O)CCCCCCCCCCCCCCCCC(=O)O)NC(=O)[C@H](CCC(=O)O)NC(=O)[C@H](CC(=O)O)NC(=O)[C@H](CC(C)C)NC(=O)C(C)(CC(C)C)NC(=O)[C@@H](NC(=O)[C@H](CO)NC(=O)[C@H](Cc1c[nH]cn1)NC(=O)[C@H](CC(=O)O)NC(=O)[C@H](CO)NC(=O)[C@@H](NC(=O)C(C)(Cc1ccccc1F)NC(=O)[C@@H](NC(=O)CNC(=O)[C@H](CCC(=O)O)NC(=O)C(C)(C)NC(=O)[C@@H](N)Cc1ccc(O)cc1)[C@@H](C)O)[C@@H](C)O)[C@@H](C)CC)[C@@H](C)O)[C@@H](C)CC)C(=O)N[C@@H](CCC(=O)O)C(=O)NCC(=O)NCC(=O)N1CCC[C@H]1C(=O)N[C@@H](CO)C(=O)N[C@@H](CO)C(=O)NCC(=O)N[C@@H](C)C(=O)N1CCC[C@H]1C(=O)N1CCC[C@H]1C(=O)N1CCC[C@H]1C(=O)N[C@@H](CO)C(N)=O (stereo partly drawn) [Example 176]	0.523	1.07
CC[C@H](C)[C@H](NC(=O)[C@H](CC(C)C)NC(=O)[C@H](Cc1ccc(O)cc1)NC(=O)[C@H](CCC(=O)O)NC(=O)[C@@H](NC(=O)[C@H](Cc1ccccc1)NC(=O)[C@H](C)NC(=O)[C@H](CO)NC(=O)[C@H](CCC(N)=O)NC(=O)[C@H](C)NC(=O)[C@H](CCCCNC(=O)COCCOCCNC(=O)COCCOCCNC(=O)CC[C@H](NC(=O)CCCCCCCCCCCCCCCCCCC(=O)O)C(=O)O)NC(=O)[C@H](CCCCN)NC(=O)[C@H](CC(=O)O)NC(=O)[C@H](CC(C)C)NC(=O)[C@H](CC(C)C)NC(=O)[C@@H](NC(=O)[C@H](CO)NC(=O)[C@H](Cc1ccc(O)cc1)NC(=O)[C@H](CC(=O)O)NC(=O)[C@H](CO)NC(=O)[C@@H](NC(=O)[C@H](Cc1ccccc1)NC(=O)[C@@H](NC(=O)CNC(=O)[C@H](CCC(=O)O)NC(=O)C(C)(C)NC(=O)[C@@H](N)Cc1ccc(O)cc1)[C@@H](C)O)[C@@H](C)O)[C@@H](C)CC)[C@@H](C)CC)C(=O)N[C@@H](CCC(=O)O)C(=O)NCC(=O)NCC(=O)N1CCC[C@H]1C(=O)N[C@@H](CO)C(=O)N[C@@H](CO)C(=O)NCC(=O)N[C@@H](C)C(=O)N1CCC[C@H]1C(=O)N1CCC[C@H]1C(=O)N1CCC[C@H]1C(=O)N[C@@H](CO)C(N)=O [Example 263] (H-Y[Aib]EGTFTSDYSILLDKK([AEEA-AEEA-γGlu-C20 diacid])AQSAFIEYLIEGGPSSGAPPPS-NH2)	0.317	0.0785
CC[C@H](C)[C@H](NC(=O)[C@H](CC(C)C)NC(=O)[C@H](Cc1ccc(O)cc1)NC(=O)[C@H](CCC(=O)O)NC(=O)[C@@H](NC(=O)[C@H](Cc1ccccc1)NC(=O)[C@H](C)NC(=O)[C@H](Cc1c[nH]cn1)NC(=O)[C@H](CCC(N)=O)NC(=O)[C@H](C)NC(=O)[C@H](CCCCNC(=O)COCCOCCNC(=O)COCCOCCNC(=O)CC[C@H](NC(=O)CCCCCCCCCCCCCCCCCCC(=O)O)C(=O)O)NC(=O)[C@H](CCCNC(=N)N)NC(=O)[C@H](CC(=O)O)NC(=O)[C@H](CC(C)C)NC(=O)[C@H](CC(C)C)NC(=O)[C@@H](NC(=O)[C@H](CO)NC(=O)[C@H](Cc1ccc(O)cc1)NC(=O)[C@H](CC(=O)O)NC(=O)[C@H](CO)NC(=O)[C@@H](NC(=O)[C@H](Cc1ccccc1)NC(=O)[C@@H](NC(=O)CNC(=O)[C@H](CCC(=O)O)NC(=O)[C@]1(C)CCCN1C(=O)[C@@H](N)Cc1ccc(O)cc1)[C@@H](C)O)[C@@H](C)O)[C@@H](C)CC)[C@@H](C)CC)C(=O)N[C@@H](CCC(=O)O)C(=O)NCC(=O)NCC(=O)N1CCC[C@H]1C(=O)N[C@@H](CO)C(=O)N[C@@H](CO)C(=O)NCC(=O)N[C@@H](C)C(=O)N1CCC[C@H]1C(=O)N1CCC[C@H]1C(=O)N1CCC[C@H]1C(=O)N[C@@H](CO)C(N)=O [Example 196] (H-Y[αMeP]EGTFTSDYSILLDRK([AEEA-AEEA-γGlu-C20 diacid])AQHAFIEYLIEGGPSSGAPPPS-NH2)	0.277	0.175
CC[C@H](C)[C@H](NC(=O)[C@H](CC(C)C)NC(=O)[C@H](Cc1ccc(O)cc1)NC(=O)[C@H](CCC(=O)O)NC(=O)[C@@H](NC(=O)[C@H](Cc1ccccc1)NC(=O)[C@H](C)NC(=O)[C@H](CCCCN)NC(=O)[C@H](CCC(N)=O)NC(=O)[C@H](C)NC(=O)[C@H](CCCCNC(=O)COCCOCCNC(=O)COCCOCCNC(=O)CC[C@H](NC(=O)CCCCCCCCCCCCCCCCCCC(=O)O)C(=O)O)NC(=O)[C@H](CCC(=O)O)NC(=O)[C@H](CC(=O)O)NC(=O)[C@H](CC(C)C)NC(=O)[C@H](CC(C)C)NC(=O)[C@@H](NC(=O)[C@H](CO)NC(=O)[C@H](Cc1ccc(O)cc1)NC(=O)[C@H](CC(=O)O)NC(=O)[C@H](CO)NC(=O)[C@@H](NC(=O)[C@H](Cc1ccccc1)NC(=O)[C@@H](NC(=O)CNC(=O)[C@H](CCC(=O)O)NC(=O)C(C)(C)NC(=O)[C@@H](N)Cc1ccc(O)cc1)[C@@H](C)O)[C@@H](C)O)[C@@H](C)CC)[C@@H](C)CC)C(=O)N[C@@H](CCC(=O)O)C(=O)NCC(=O)NCC(=O)N1CCC[C@H]1C(=O)N[C@@H](CO)C(=O)N[C@@H](CO)C(=O)NCC(=O)N[C@@H](C)C(=O)N1CCC[C@H]1C(=O)N1CCC[C@H]1C(=O)N1CCC[C@H]1C(=O)N[C@@H](CO)C(N)=O [Example 258] (H-Y[Aib]EGTFTSDYSILLDEK([AEEA-AEEA-γGlu-C20 diacid])AQKAFIEYLIEGGPSSGAPPPS-NH2; N-terminus assumed)	2.43	0.174
CC[C@H](C)[C@H](NC(=O)[C@H](CC(C)C)NC(=O)[C@H](Cc1ccc(O)cc1)NC(=O)[C@@H](CCC(=O)O)NC(=O)[C@@H](NC(=O)[C@H](Cc1ccccc1)NC(=O)[C@H](CCC(=O)O)NC(=O)C(C)(C)NC(=O)[C@H](CCC(N)=O)NC(=O)[C@H](C)NC(=O)[C@H](CCCCNC(=O)COCCOCCNC(=O)COCCOCCNC(=O)CC[C@H](NC(=O)CCCCCCCCCCCCCCCCCCC(=O)O)C(=O)O)NC(=O)[C@H](CCC(=O)O)NC(=O)[C@H](CC(=O)O)NC(=O)[C@H](CC(C)C)NC(=O)[C@](C)(CC(C)C)NC(=O)[C@@H](NC(=O)[C@H](CO)NC(=O)[C@@H](Cc1ccc(O)cc1)NC(=O)[C@H](CC(=O)O)NC(=O)[C@H](CO)NC(=O)[C@@H](NC(=O)[C@](C)(Cc1ccccc1F)NC(=O)[C@@H](NC(=O)CNC(=O)[C@H](CCC(=O)O)NC(=O)C(C)(C)NC(=O)[C@@H](N)Cc1ccc(O)cc1)[C@@H](C)O)[C@@H](C)O)[C@@H](C)CC)[C@@H](C)CC)C(=O)N[C@@H](CCC(=O)O)C(=O)NCC(=O)NCC(=O)N1CCC[C@H]1C(=O)N[C@@H](CO)C(=O)N[C@@H](CO)C(=O)NCC(=O)N[C@@H](C)C(=O)N1CCC[C@H]1C(=O)N1CCC[C@H]1C(=O)N1CCC[C@H]1C(=O)N[C@@H](CO)C(N)=O [Example 184] (H-Y[Aib]EGT[αMePhe(2-F)]TSD[dY]SI[αMeL]LDEK([AEEA-AEEA-γGlu-C20 diacid])AQ[Aib]EFI[dE]YLIEGGPSSGAPPPS-NH2)	0.0477	
CC[C@H](C)[C@H](NC(=O)[C@H](CC(C)C)NC(=O)[C@H](Cc1ccc(O)cc1)NC(=O)[C@@H](CCC(=O)O)NC(=O)[C@@H](NC(=O)[C@H](Cc1ccccc1)NC(=O)[C@H](Cc1c[nH]cn1)NC(=O)C(C)(C)NC(=O)[C@H](CCC(N)=O)NC(=O)[C@H](C)NC(=O)[C@H](CCCCNC(=O)COCCOCCNC(=O)COCCOCCNC(=O)CC[C@H](NC(=O)CCCCCCCCCCCCCCCCC(=O)O)C(=O)O)NC(=O)[C@H](CCC(=O)O)NC(=O)[C@H](CC(=O)O)NC(=O)[C@H](CC(C)C)NC(=O)[C@](C)(CC(C)C)NC(=O)[C@@H](NC(=O)[C@H](CO)NC(=O)[C@H](Cc1c[nH]cn1)NC(=O)[C@H](CC(=O)O)NC(=O)[C@H](CO)NC(=O)[C@@H](NC(=O)[C@](C)(Cc1ccccc1F)NC(=O)[C@@H](NC(=O)CNC(=O)[C@H](CCC(=O)O)NC(=O)C(C)(C)NC(=O)[C@@H](N)Cc1ccc(O)cc1)[C@@H](C)O)[C@@H](C)O)[C@@H](C)CC)[C@@H](C)CC)C(=O)N[C@@H](CCC(=O)O)C(=O)NCC(=O)NCC(N)=O [Example 180] (H-Y[Aib]EGT[αMePhe(2-F)]TSDHSI[αMeL]LDEK([AEEA-AEEA-γGlu-C18 diacid])AQ[Aib]HFI[dE]YLIEGG-NH2)		2.16
